Experimental data from patent publication US11427539B2, “Beta-hydroxy heterocyclic amines and their use in the treatment of hyperglycaemia” (ATROGI AB, priority 2017, dated 2022).
Where a name gives a salt, the structure may show the parent alone.

Assays:
[1] = test system: Differentiated L6-myotubes; assay: Glucose uptake in differentiated L6-myotubes (3H-2-deoxy-glucose); assay type: cell-based; conditions: agonist final concentration 1×10^−5, L6-myotubes, 3H-2-deoxy-glucose uptake, relative to isoproterenol; for Emax: read-out: Biological example 1: glucose uptake, activity compared to that of isoproterenol; for Biological example 1: glucose uptake, activity compared to that of isoproterenol: Hydrochloride
[2] = test system: Intracellular cAMP levels in differentiated cells (L6-myotubes); assay: Measurement of intracellular cAMP levels (alpha screen cAMP kit); assay type: cell-based; conditions: agonist final concentration 1×10-^5, 15 min, differentiated cells, relative to isoproterenol; for Emax: 0.25 h, read-out: Biological example 2: intracellular cAMP levels, activity compared to that of isoproterenol
Protocol: L6-myoblasts were grown in Dulbecco's Modified Eagle's Medium (DMEM) containing 4.5 g/l glucose supplemented with 10% fetal bovine serum, 2 mM L-Glutamine, 50 U/ml penicillin, 50 μg/ml streptomycin and 10 mM HEPES. Cells were plated at 1×10^5 cells per ml in 24-well plates. After reaching 90% confluence the cells were grown in medium containing 2% FBS for 7 days where upon cells differentiated into myotubes. Differentiated cells were serum-starved over night and stimulated with agonist, final concentration 1×10-^5, for 15 min in stimulation buffer (HBSS supplemented with 1% BSA, 5 mM HEPES and 1 mM IBMX, pH 7.4) The medium was then aspirated and to end the reaction 100 μL of 95% EtOH was added to each well of a 24-well plate and cells were kept in −20° C. over night. The EtOH was let to evaporate and 500 μL of lysis buffer (1% BSA, 5 mM HEPES and 0.3% Tween-20, pH 7.4) was added to each well before put in −80° C. for 30 min and then kept in −20° C. Intracellular cAMP levels were detected using an alpha screen cAMP kit (6760635D from Perkin Elmer). The activity for each compound is compared to that of isoproterenol.

Row | SMILES | Emax [1] [%] | Emax [2] [%] | Biological example 1: glucose uptake, activity compared to that of isoproterenol [1] | Biological example 2: intracellular cAMP levels, activity compared to that of isoproterenol [2]
1 | CCC[C@H]1CCC[C@@H]([C@@H](O)c2cccc(F)c2)N1 [Example 35, (S)-(3-Fluorophenyl)((2S,6S)-6-propylpiperidin-2-yl)methanol hydrochloride] | 25 to 50 | < 25 |  | 
2 | CCCC1CCC[C@H](C(O)c2cccc(O)c2)N1 (stereo in doubt) [Example 19, 3-((R)-Hydroxy((2R,6R)-6-propylpiperidin-2-yl)methyl)phenol Hydrochloride] | 25 to 50 | < 25 |  | 
3 | CCC[C@@H]1CCCC([C@@H](O)c2cccc(O)c2)N1 (stereo in doubt) [Example 33, 3-((S)-hydroxy((2S,6R)-6-propylpiperidin-2-yl)methyl)phenol Hydrochloride] |  |  | ++ (between 75 and 50%) | − (less than 25%)
4 | CCC[C@@H]1CC[C@@H]([C@H](O)c2cccc(F)c2)N1 [Example 43, (R)-(3-Fluorophenyl)((2S,5R)-5-propylpyrrolidin-2-yl)methanol Hydrochloride] | 25 to 50 | < 25 |  | 
5 | CCC[C@H]1CCC[C@H]([C@H](O)c2ccccc2F)N1 [Example 22, (R)-(2-Fluorophenyl)((2R,6S)-6-propylpiperidin-2-yl)methanol] | 50 to 75 | < 25 |  | 
6 | C[C@@H]1CC[C@H]([C@H](O)c2cccc(O)c2)N1 (racemic) [Example 10, Racemic Mixture of 3-((R)-Hydroxy((2R,5R)-5-methylpyrrolidin-2-yl)methyl)-phenol Acetate and 3-((S)-Hydroxy((2S,5S)-5-methylpyrrolidin-2-yl)methyl)phenol Acetate] | > 75 | < 25 |  | 
7 | CCC[C@@H]1CCC[C@H]([C@@H](O)c2cccc(O)c2)N1 [Example 14, 3-((S)-Hydroxy((2R,6R)-6-propylpiperidin-2-yl)methyl)phenol Hydrochloride] |  | < 25 | + (between 50 and 25%) | 
8 | CCC[C@@H]1CCC[C@H]([C@@H](O)c2cccc(F)c2)N1 [Example 13, (S)-(3-Fluorophenyl)((2R,6R)-6-propylpiperidin-2-yl)methanol] | 50 to 75 | < 25 |  | 
9 | CCC[C@H]1CCC[C@H]([C@@H](O)c2cc(F)cc(F)c2)N1 [Example 27, (S)-(3,5-Difluorophenyl)((2R,6S)-6-propylpiperidin-2-yl)methanol acetate] | 25 to 50 | < 25 |  | 
10 | CCC[C@H]1CCC[C@H]([C@H](O)c2cccc(F)c2)N1 [Example 2, (R)-(3-Fluorophenyl)((2R,6S)-6-propylpiperidin-2-yl)methanol] | > 75 | < 25 |  | 
11 | CCC[C@H]1CCC[C@H]([C@H](O)c2ccccc2Cl)N1 [Example 24, (R)-(2-Chlorophenyl)((2R,6S)-6-propylpiperidin-2-yl)methanol] | 25 to 50 | < 25 |  | 
12 | CCC[C@H]1CCC[C@H]([C@H](O)c2cccc(O)c2)N1 [Example 5, 3-((R)-Hydroxy((2R,6S)-6-propylpiperidin-2-yl)methyl)phenol Acetate] | > 75 | < 25 |  | 
13 | CCC[C@@H]1CC[C@H]([C@@H](O)c2cccc(F)c2)N1 [Example 39, (S)-(3-Fluorophenyl)((2R,5R)-5-propylpyrrolidin-2-yl)methanol Hydrochloride] | 50 to 75 | < 25 |  | 
14 | C[C@H]1CC[C@@H]([C@H](O)c2cccc(O)c2)N1 (racemic) [Example 9, Racemic mixture of 3-((R)-Hydroxy((2S,5S)-5-methylpyrrolidin-2-yl)methyl)-phenol Acetate and 3-((S)-Hydroxy((2R,5R)-5-methylpyrrolidin-2-yl)methyl)phenol Acetate] | 50 to 75 | < 25 |  | 
15 | CCC[C@@H]1CC[C@H]([C@H](O)c2cccc(O)c2)N1 [Example 8, 3-((R)-Hydroxy((2R,5R)-5-propylpyrrolidin-2-yl)methyl)phenol] | > 75 | 25 to 50 |  | 
